From patent US11602514B2, “Medicament having anti-inflammatory bowel disease function, and preparation method therefor and application thereof” (SUZHOU PHARMAVAN CO., LTD, priority 2018, dated 2023)
“Also recorded” adds a separate entry of the source.

Experiments:
[1] = system: IL-6 secreted by mouse macrophages RAW264.7 induced by LPS; test: IL-6 secreted by LPS-induced RAW264.7 macrophages (ELISA); assay type: cell-based; settings: LPS 100 ng/mL, 24 h; FIG. 5
Description: (§1) Effects of myricanol derivatives on the expression of inflammatory factors such as IL-6, TNF-α, PEG2 secreted by a mouse macrophage cell strain RAW 264.7 induced by bacterial lipopolysaccharide (hereinafter referred to as LPS) stimulus: A pre-prepared cell suspension was inoculated in a 96-well plate at 15000 cells/well and 100 μl/well and cultured overnight in an incubator with 5% CO2 at 37° C. At 80% cell confluence, the original culture medium was discarded, and each well was added with 100 μl of prepared drug solution to be tested with a different concentration, cultured for 1 h, and then added with a LPS solution, where the final concentration of LPS in the culture system was 100 ng/mL. Each concentration was set with 3 parallel wells, and a cell control group (no drug and no solvent) and a blank medium control group (no cells, a well for zero adjustment) were set. They were cultured for another 24 h. Cell culture supernatants were aspirated, and an R&D ELISA detection kit (M6000B; MTA00B; VAL601) was used for detecting the expression of the inflammatory factors such as IL-6, TNF-α, and PEG2 in each group. Cell proteins were collected, and a […] method was used for detecting COX-2 protein expression in each group.

[2] = system: COX2 protein expressed by mouse macrophages RAW264.7; test: COX2 protein expression in LPS-induced RAW264.7 macrophages (blot); assay type: cell-based; settings: FIG. 8
Description: as §1

[3] = system: PGE2 secreted by mouse macrophages RAW264.7 induced by LPS; test: PGE2 secreted by LPS-induced RAW264.7 macrophages (ELISA); assay type: cell-based; settings: for inhibition of PGE2 secreted by RAW264.7 induced by LPS: LPS 100 ng/mL, 24 h, FIGS. 7 and 9
Description: as §1

[4] = system: mouse macrophages RAW264.7; test: effect on proliferation activity of mouse macrophages RAW264.7; assay type: cell-based; settings: n=3, FIG. 4
SD rats = test: acute toxicity, single oral dose; assay type: in vivo; settings: single intragastric administration, 14 days observation
Text: Trial method: 30 SD rats, half male and half female, were used. The average weight was 160-200 g for female rats and 180-220 g for male rats when grouped. An individual weight should be within ±20% of the average weight. Before the test, animals needed to accommodate to the environment for at least 5 days, and healthy rats (female rats should be not pregnant) were selected as test animals. Matter detected during the accommodation period mainly was: whether the rats were consistent with quality indexes required in the order; detection of general conditions; and whether the weight was within the weight range required by the test. Unqualified abnormal animals were excluded from the test. A single dosage was orally administered to rats at a low, medium, or high dose. […] A control group was set with the oral administration of the same volume of solvent.
The rats were observed about 0-2 h and 4-6 h after each administration. If a toxicity symptom occurs, the rats may be observed more times. (2) Gross anatomical observation: on the 14th day of the test, all surviving rats in each group were dissected and observed, and for administration sites and gross dissection, abnormal organs and tissues which were observed and found to be potentially related to test samples were photographed and recorded. (3) Disposal of dying animals: status of rats and observation time were recorded, and their weights were measured. (4) Disposal of dead animals: the time of death or when a rat was found dead were recorded. The rat was measured for weight before quickly dissected for gross observation and speculated for a cause of death.

| Compound | inhibition of LPS-induced IL-6 secretion of RAW264.7 cells [1] | inhibition of protein expression of IBD-related COX2 [2] | inhibition of PGE2 secreted by RAW264.7 induced by LPS [3] | effect on proliferation activity of mouse macrophages RAW264.7 ([4]; 30 μM) | other results |
| --- | --- | --- | --- | --- | --- |
| 5-n-propoxy myricanol [compound B] | very strong effects of inhibiting | can inhibit | significant effect of inhibiting PGE2; also recorded: strong ability to inhibit | no significant effects | – |
| COc1c2cc(c(OC(C)=O)c1OC)CCCCC(O)CCc1ccc(OC(C)=O)c-2c1 (centres unmarked) [compound A, 5,17-diacetoxy myricanol] | very strong effects of inhibiting | can inhibit | significant effect of inhibiting PGE2; also recorded: strong ability to inhibit | – | Test Endpoint (toxic side effects) (SD rats; 100 mg/kg): No obvious toxic; Test Endpoint (toxic side effects) (SD rats; 300 mg/kg): No obvious toxic; Test Endpoint (toxic side effects) (SD rats; 1000 mg/kg): No obvious toxic; effect on proliferation activity of mouse macrophages RAW264.7 ([4]; 40 μM): no significant effects |
| COc1c2cc(c(OCc3ccccc3)c1OC)CCCCC(O)CCc1ccc(O)c-2c1 (centres unmarked) [compound C, 5-benzyloxy myricanol] | – | – | – | no significant effects | – |
| C=CCOc1ccc2cc1-c1cc(c(OCC=C)c(OC)c1OC)CCCCC(O)CC2 (centres unmarked) [compound D, 5,17-diallyloxy myricanol] | – | – | – | no significant effects | – |
| C=CCOc1c2cc(c(OC)c1OC)-c1cc(ccc1O)CCC(O)CCCC2 (centres unmarked) [compound E, 5-allyloxy myricanol] | – | – | – | no significant effects | – |
| C=CCOc1ccc2cc1-c1cc(c(OCC=C)c(OC)c1OC)CCCCC(=O)CC2 [compound F, 5,17-allyloxy myricanone] | – | – | – | – | effect on proliferation activity of mouse macrophages RAW264.7 ([4]; 80 μM): no significant effects |
| COc1c2cc(c(OC(C)=O)c1OC)CCCCC(O)CCc1ccc(O)c-2c1 (centres unmarked) [compound G, 5-acetoxy myricanol] | very strong effects of inhibiting | can inhibit | significant effect of inhibiting PGE2; also recorded: strong ability to inhibit | – | COX2 protein expression inhibition compared with myricanol [2]: better inhabitation effects than myricanol; Test Endpoint (toxic side effects) (SD rats; 100 mg/kg): No obvious toxic; Test Endpoint (toxic side effects) (SD rats; 300 mg/kg): No obvious toxic; Test Endpoint (toxic side effects) (SD rats; 1000 mg/kg): No obvious toxic; effect on proliferation activity of mouse macrophages RAW264.7 ([4]; 40 μM): no significant effects |
| COc1c2cc(c(O)c1OC)CCCC[C@@H](O)CCc1ccc(O)c-2c1 [myricanol, reference compound] | – | can inhibit | strong ability to inhibit | – | PGE2 ([3]; LPS + 20 μM, LPS alone 1154.90 ± 84.20, control −407.37 ± 57.67): 904.98 ± 18.02 pg/mL |
